US4264590A, “Antibacterial peptide” (Abbott Laboratories, priority 1980, dated 1981)

Tests used:
E. coli (Juhl) [1] = assay: two-fold agar dilution assay, M.I.C.; assay type: cell-based; conditions: for MIC: Escherichia coli, substance alone, agar dilution, read-out: minimum inhibitory concentration (M.I.C.)
Excerpt: (§1) In a two-fold agar dilution assay with E. coli (Juhl) and E. coli 6880 as test organisms, compounds of Examples 1 and 2 show a minimum inhibitory concentration (M.I.C.) of >800 ppm. […] The combination of the new peptide with D-cycloserine produces the following M.I.C. test results.

E. coli 6880 = assay: two-fold agar dilution assay, M.I.C.; assay type: cell-based; conditions: for MIC: Escherichia coli, substance alone, agar dilution, read-out: minimum inhibitory concentration (M.I.C.)
Excerpt: as §1

E. coli (305-101) = assay: mouse protection test, CD50 (Table III); assay type: in vivo
Procedure: (§2) Charles River mice, weighing approximately 20 g. each, are infected intraperitoneally with 10-100 times the LD of the infecting organism. At predetermined intervals post-infection, e.g., 1 and 5 hours, mice are dosed subcutaneously with graded doses of the halogenated peptide, antibiotic and combination thereof. The number of mice surviving each treatment for 7 days post-infection is observed and the CD50 is calculated. The fractional inhibitory concentration (F.I.C.) for each combination is calculated in the usual manner.
(§3) In this table, the following infecting microorganisms were used:
(§4) The infecting organisms are listed by the above code; the compounds are listed by their Example number. In all instances, the dipeptide and D-cycloserine were tested at a ratio of 10:1. The CD50 combination column lists only the amount of peptide present; the D-cycloserine amount is 10% of the listed amount.

Strep. pyrogenes (C 203) = assay: mouse protection test, CD50 (Table III); assay type: in vivo
Procedure: as §2, §3
Strep. pyrogenes (C 203).
as §4

E. coli (Juhl) [2] = assay: serial dilution in synthetic medium in test tubes, MIC and F.I.C. index (Table II); assay type: cell-based; conditions: for MIC: Escherichia coli
Procedure: The halogenated peptides alone, the antibiotic alone or mixtures of the halogenated peptides and selected antibiotics are prepared in sterile concentrated aqueous solutions at the desired ratios. Serial dilutions are made to give a range of concentrations of the test substances. Samples of the dilutions are mixed with an appropriate sterile synthetic medium in test tubes. The tubes are then inoculated with an appropriate test organism and incubated at 35°-37° C. for 16-20 hours. Minimum inhibitory concentrations, i.e., that concentration which inhibits visible growth, are read and the fractional inhibitory concentration indices (F.I.C.) are calculated. In all instances, E. coli (Juhl) was used as the infecting microorganism.

S. aureus (Smith) = assay: mouse protection test, CD50 (Table III); assay type: in vivo; conditions: for F.I.C. Index / CD50 (mg/kg) Combination: S. aureus (Smith) in mice, dipeptide:D-cycloserine 10:1; for CD50 (mg/kg) Combination: amount of peptide only listed, D-cycloserine is 10% of it; for CD50 (mg/kg) Peptide: mice infected i.p. with S. aureus (Smith), dosed subcutaneously, 7 days survival, peptide alone
Procedure: as §2, §3, §4

[3] = peptide:D-cycloserine ratio 1:1
[4] = peptide:D-cycloserine ratio 1:8
[5] = peptide:D-cycloserine ratio 8:1
[6] = combination with D-cycloserine, ratio Pep/Antib. 1:1, read-out: MIC ppm Pep/Antib., peptide part
[7] = combination with D-cycloserine, ratio Pep/Antib. 1:8, read-out: MIC ppm Pep/Antib., peptide part
[8] = peptide alone, E. coli (Juhl), 35-37° C., 16-20 hours, read-out: MIC ppm Peptide
[9] = combination with D-cycloserine, ratio Pep/Antib. 1:1
[10] = combination with D-cycloserine, ratio Pep/Antib. 1:8
[11] = combination with D-cycloserine, ratio Pep/Antib. 8:1
[12] = combination with cephalothin, ratio Pep/Antib. 1:1

| Structure (SMILES) | MIC (E. coli (Juhl) [1]) [µg/mL] | MIC (E. coli 6880) [µg/mL] | M.I.C. of combination, D-cycloserine part (E. coli (Juhl) [1]; [3]) [ppm] | M.I.C. of combination, peptide part (E. coli (Juhl) [1]; [3]) [ppm] | M.I.C. of combination, D-cycloserine part (E. coli (Juhl) [1]; [4]) [ppm] | M.I.C. of combination, peptide part (E. coli (Juhl) [1]; [4]) [ppm] | M.I.C. of combination, D-cycloserine part (E. coli (Juhl) [1]; [5]) [ppm] | M.I.C. of combination, peptide part (E. coli (Juhl) [1]; [5]) [ppm] | M.I.C. of combination, D-cycloserine part (E. coli 6880; [3]) [ppm] | M.I.C. of combination, peptide part (E. coli 6880; [3]) [ppm] | M.I.C. of combination, D-cycloserine part (E. coli 6880; [4]) [ppm] | M.I.C. of combination, peptide part (E. coli 6880; [4]) [ppm] | M.I.C. of combination, D-cycloserine part (E. coli 6880; [5]) [ppm] | M.I.C. of combination, peptide part (E. coli 6880; [5]) [ppm] | MIC (E. coli (Juhl) [2]; [6]) [µg/mL] | MIC (E. coli (Juhl) [2]; [7]) [µg/mL] | MIC (E. coli (Juhl) [2]; [8]) [µg/mL] | F.I.C. Index (S. aureus (Smith)) | CD50 (mg/kg) Combination (S. aureus (Smith)) [mg/kg] | CD50 (mg/kg) Peptide (S. aureus (Smith)) [mg/kg] | also measured |
| --- | --- | --- | --- | --- | --- | --- | --- | --- | --- | --- | --- | --- | --- | --- | --- | --- | --- | --- | --- | --- | --- |
| N[C@@H]1CON=C1O [D-cycloserine, reference compound] | 12.5 | 6.2 | – | – | – | – | – | – | – | – | – | – | – | – | – | – | – | – | – | – | CD50 (mg/kg) Cycloserine (E. coli (305-101); mice infected i.p. with E. coli (305-101), dosed subcutaneously, 7 days survival, D-cycloserine alone): 63 mg/kg; CD50 (mg/kg) Cycloserine (Strep. pyrogenes (C 203); mice infected i.p. with Strep. pyrogenes (C 203), dosed subcutaneously, 7 days survival, D-cycloserine alone): > 100 mg/kg |
| Br.C[C@H](N)C(=O)N[C@H](CF)C(=O)O [Example 1, L-alanyl-β-fluoro-D-alanine hydrobromide] | > 800 | > 800 | 0.2 | 0.2 | 1.56 | 0.2 | 0.05 | 0.39 | 0.1 | 0.1 | 0.78 | 0.1 | 0.05 | 0.39 | 0.2 | 0.2 | > 800 | < 0.37 | < 3.1 | 9.2 | MIC (E. coli (Juhl) [2]; combination with D-cycloserine, ratio Pep/Antib. 8:1, read-out: MIC ppm Pep/Antib., peptide part): 0.39 µg/mL; F.I.C. Index (E. coli (Juhl) [2]; [9]): 0.02; MIC ppm Pep/Antib., antibiotic part (E. coli (Juhl) [2]; [9]): 0.2 ppm; F.I.C. Index (E. coli (Juhl) [2]; [10]): 0.12; MIC ppm Pep/Antib., antibiotic part (E. coli (Juhl) [2]; [10]): 1.56 ppm; F.I.C. Index (E. coli (Juhl) [2]; [11]): 0.004; MIC ppm Pep/Antib., antibiotic part (E. coli (Juhl) [2]; [11]): 0.05 ppm; F.I.C. Index (E. coli (305-101); E. coli (305-101) in mice, dipeptide:D-cycloserine 10:1): 0.90; CD50 (mg/kg) Combination (E. coli (305-101); E. coli (305-101) in mice, dipeptide:D-cycloserine 10:1, amount of peptide only listed, D-cycloserine is 10% of it): 25 mg/kg; CD50 (mg/kg) Peptide (E. coli (305-101); mice infected i.p. with E. coli (305-101), dosed subcutaneously, 7 days survival, peptide alone): 26 mg/kg; F.I.C. Index (Strep. pyrogenes (C 203); Strep. pyrogenes (C 203) in mice, dipeptide:D-cycloserine 10:1): 0.60; CD50 (mg/kg) Combination (Strep. pyrogenes (C 203); Strep. pyrogenes (C 203) in mice, dipeptide:D-cycloserine 10:1, amount of peptide only listed, D-cycloserine is 10% of it): 10.9 mg/kg; CD50 (mg/kg) Peptide (Strep. pyrogenes (C 203); mice infected i.p. with Strep. pyrogenes (C 203), dosed subcutaneously, 7 days survival, peptide alone): 17.8 mg/kg |
| C[C@H](N)C(=O)N[C@H](CCl)C(=O)O [Example 2, L-alanyl-β-chloro-D-alanine] | > 800 | > 800 | 0.78 | 0.78 | 1.56 | 0.2 | 0.78 | 0.62 | 0.78 | 0.78 | 0.78 | 0.1 | 0.39 | 3.1 | 0.78 | 0.2 | > 800 | 0.34 | 35 | 170 | MIC (E. coli (Juhl) [2]; combination with cephalothin, ratio Pep/Antib. 1:1, read-out: MIC ppm Pep/Antib., peptide part): 3.1 µg/mL; F.I.C. Index (E. coli (Juhl) [2]; [9]): 0.06; MIC ppm Pep/Antib., antibiotic part (E. coli (Juhl) [2]; [9]): 0.78 ppm; F.I.C. Index (E. coli (Juhl) [2]; [10]): 0.12; MIC ppm Pep/Antib., antibiotic part (E. coli (Juhl) [2]; [10]): 1.56 ppm; F.I.C. Index (E. coli (Juhl) [2]; [12]): 0.50; MIC ppm Pep/Antib., antibiotic part (E. coli (Juhl) [2]; [12]): 3.1 ppm |
| CC(C)[C@H](N)C(=O)N[C@H](CF)C(=O)O [Example 3, L-Val-βF-D-Ala] | – | – | – | – | – | – | – | – | – | – | – | – | – | – | – | – | – | 0.15 | 1.0 | 10 | – |
